Patent US10189837B2, “Crystalline (8S,9R)-5-fluoro-8-(4-fluorophenyl)-9-(1-methyl-1H-1,2,4-triazol-5-yl)-8,9-dihydro-2H-pyrido[4,3,2-de]phthalazin-3(7H)-one tosylate salt” (Medivation Technologies, LLC, priority 2010, dated 2019)

How the values were obtained:
Type in all cases: cell-based
[1] = test system: Mantle cell lymphoma cell line Granta-519; assay: Single-agent cytotoxicity assay, CellTiter Glo cell survival; settings: Homo sapiens, Granta-519, 96 h, 4-day assay
Description: (§1) Mantle cell lymphoma cell line Granta-519 was cultured in Dulbecco's MEM (4.5 g/L glucose) containing 10% FBS, 2 mM L-glutamine, 100 U/mL Penicillin and 100 μg/mL Streptomycin. Mantle cell lymphoma cell line Jeko-1 was cultured in RPMI1640 containing 10% FBS, 100 U/mL Penicillin and 100 μg/mL Streptomycin. Mantle cell lymphoma cell line Z138 was cultured in IMDM containing 10% horse serum, 100 U/mL Penicillin and 100 μg/mL Streptomycin. All cell lines were maintained in 37° C. incubator with 5% CO2 till ready for assay. Granta-519, Jeko-1 and Z138 cells were seeded at either 1000 or 5000 cells/well in 96-well plates. Cells were incubated for overnight at 37° C. before treated with their corresponding growth media containing free base in 0.1% DMSO at various concentrations ranging from 1000 nM to 0.32 nM. 0.1% DMSO was used as mock treatment or control. After 4 days incubation, cell survival was measured by CellTiter Glo (Promega) and cell survival fraction was calculated relative to control. GraphPad Prism5 software was used to plot data and calculate IC50 values.

[2] = test system: Mantle cell lymphoma cell line Jeko-1; assay: as above; settings: Homo sapiens, JeKo-1, 96 h, 4-day assay
Description: as §1

[3] = test system: Mantle cell lymphoma cell line Z138; assay: as above; settings: Homo sapiens, Z-138, 96 h, 4-day assay
Description: as §1

[4] = test system: Basaloid squamous cell line PE/CA-PJ34 (clone 12); assay: Single-agent cytotoxicity assay in head & neck tumor cell lines
Description: (§2) Oral squamaous carcinoma HSC-3 and HSC-4 cells were cultured in MEM+10% FBS. Oral squamaous carcinoma CAL 27 was cultured in DMEM+10% FBS. Basaloid squamous cell line PE/CA-PJ34 (clone 12) was cultured in IMDM+10% FBS. All cell lines were maintained in their corresponding growth media containing 100 U/mL Penicillin and 100 μg/mL Streptomycin in 37° C. incubator with 5% CO2 till ready for assay. According to individual cell line growth rate, cells were seeded at different densities as indicated in each graph in 96-well plates in the time of assay. Cells were incubated for overnight at 37° C. before treated with their corresponding growth media containing free base in 0.1% DMSO at various concentrations ranging from 5000 nM to 0.064 nM. 0.1% DMSO was used as mock treatment or control. Media and compound were replenished every 5 days. After incubation for 7, 10, 11 or 13 days (as indicated in each graph), cell survival was measured by CellTiter Glo (Promega) and cell survival fraction was calculated relative to control. GraphPad Prism5 software was used to plot data and calculate IC50 values.

[5] = test system: Oral squamaous carcinoma CAL 27; assay: as above; settings: Homo sapiens
Description: as §2

[6] = test system: Oral squamaous carcinoma HSC-3 cells; assay: as above; settings: Homo sapiens
Description: as §2

[7] = test system: Oral squamaous carcinoma HSC-4 cells; assay: as above; settings: Homo sapiens
Description: as §2

Question: How did the IC50 ([1]; Granta-519, 1000/well) turn out when `Cn1ncnc1[C@H]1c2n[nH]c(=O)c3cc(F)cc(c23)N[C@@H]1c1ccc(F)cc1` [free base, (8S,9R)-5-fluoro-8-(4-fluorophenyl)-9-(1-methyl-1H-1,2,4-triazol-5-yl)-8,9-dihydro-2H-pyrido[4,3,2-de]phthalazin-3(7H)-one] was run?
Answer: 1.7 nM

Question: What about the IC50 ([1]; Granta-519, 5000/well) of the same compound?
Answer: 8.83 nM

Question: What about the IC50 ([2]; Jeko-1, 1000/well) of the same compound?
Answer: 64.2 nM

Question: And the IC50 ([2]; Jeko-1, 5000/well)?
Answer: 357 nM

Question: What about the IC50 ([3]; Z-138, 1000/well) of the same compound?
Answer: 10.4 nM

Question: And the IC50 ([3]; Z-138, 5000/well)?
Answer: 59.4 nM

Question: And the IC50 ([4]; 240 h, PE/CA-PJ34 C12, 10 days, 2000/well)?
Answer: 13.6 nM

Question: What about the IC50 ([4]; 312 h, PE/CA-PJ34 C12, 13 days, 1000/well) of the same compound?
Answer: 18.1 nM

Question: And the IC50 ([5]; CAL-27, 168 h, CAL27, 7 days, 800/well)?
Answer: 23 nM

Question: And the IC50 ([5]; CAL-27, 264 h, CAL27, 11 days, 400/well)?
Answer: 15.3 nM

Question: What about the IC50 ([6]; 168 h, HSC-3, 7 days, 1500/well) of the same compound?
Answer: 972 nM

Question: What about the IC50 ([6]; 264 h, HSC-3, 11 days, 750/well) of the same compound?
Answer: 931 nM

Question: What about the IC50 ([7]; 168 h, HSC-4, 7 days, 100/well) of the same compound?
Answer: 58 nM

Question: And the IC50 ([7]; 264 h, HSC-4, 11 days, 200/well)?
Answer: 48.8 nM
